# Measurements taken from PubChem BioAssay (NCI).
#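 How tested: cells in 96-well plates exposed to compound for 48 hours at five concentrations. At the GI50, growth is halved. Definition used: TGI = concentration required for complete inhibition of growth.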
# Assays:
# Assay in all cases: NCI tumour cell line growth inhibition, 48 h
# [1] = test system: SK-MEL-28 melanoma
# [2] = test system: MOLT-4 leukemia
# [3] = test system: IGROV1 ovarian
# [4] = test system: MDA-MB-231 breast
# [5] = test system: HOP-62 NSCLC
# [6] = test system: K-562 leukemia
# [7] = test system: NCI-H23 lung
# [8] = test system: SR leukemia
# [9] = test system: NCI-H460 lung
# [10] = test system: RPMI-8226 leukemia
SMILES,GI50 [1] [µM],TGI [1] [µM],GI50 [2] [µM],TGI [2] [µM],GI50 [3] [µM],TGI [3] [µM],GI50 [4] [µM],TGI [4] [µM],GI50 [5] [µM],TGI [5] [µM],GI50 [6] [µM],TGI [6] [µM],GI50 [7] [µM],TGI [7] [µM],GI50 [8] [µM],TGI [8] [µM],GI50 [9] [µM],TGI [9] [µM],GI50 [10] [µM],TGI [10] [µM]
O=C(Nc1ccc2[nH]c(=S)sc2c1)Nc1ccccc1F,42.2,> 100,22.4,> 100,3.58,> 100,23.1,> 100,37.2,> 100,28.6,> 100,35.8,> 100,17.5,> 100,38,> 100,18,> 100
O=P(CCCCP(=O)(c1ccccc1)c1ccccc1)(c1ccccc1)c1ccccc1.[Cl][Sn]([Cl])([c]1ccccc1)[c]1ccccc1,1.7,3.32,2.06,> 100,3.9,8.39,0.626,2.11,0.462,2.67,0.444,> 100,1.48,3.48,1.78,> 100,6.51,15.9,0.332,1.16
CN(C)CC1C(=O)O[C@H]2[C@H]1CC/C(COC(=O)c1cc3ccccc3[nH]1)=C\CC[C@@]1(C)O[C@@H]21 (stereo not given in full),2.17,5.24,1.98,7.32,1.97,4.62,2,4.63,2.72,7.98,1.14,6.11,2.39,8.3,1.55,9.89,7.35,25.6,0.354,2.11
COc1ccc(S(=O)(=O)Nc2cc(/C=C\c3cc(OC)c(OC)c(OC)c3)ccc2OC)cc1,0.143,> 100,0.388,> 100,0.166,> 100,0.399,> 100,0.041,> 100,0.053,> 100,0.48,> 100,0.0709,4.18,0.178,11.7,0.319,3.83
COc1ccc(/C=C(\C#N)n2nnc3ccccc32)cc1,1.65,> 86.9,0.542,> 44.9,0.158,8.16,0.525,3.47,0.486,25.8,0.043,> 100,0.572,50.4,0.0555,> 39.6,0.322,7.88,0.385,24.6
CN(C)CCCN1c2ccccc2C(C)(C)c2ccccc21,,31.4,,26.6,,31.7,,27.8,,31.5,,27.1,,30.4,,27.1,,26.4,,28.5
Cc1cc(NCc2cc(Nc3ccnc4cc(Cl)ccc34)ccc2F)nc(N2CCN(C)CC2)n1,1.7,3.26,1.39,8.17,2.08,5.76,1.64,3.74,1.62,4.79,0.386,2.11,2.1,6.54,0.245,1.03,1.5,3.31,1.32,3.65
COc1cc(/C=N/NC(=O)c2cnn3c2NC(c2ccccc2)C3)ccc1Oc1ccccc1 (stereo not given),1.38,6.94,1.99,20.4,1.36,10.8,1.66,5.03,1.18,4.34,0.571,18.6,1.63,10.8,0.488,10,0.875,2.83,2.83,31.4
CC(C)COCC(CN(Cc1ccccc1)c1ccccc1)N1CCCC1 (stereo not given),3.48,13.8,3.61,13.1,3.18,15,1.84,5.22,2.82,14.4,3.43,10.3,2.82,14.6,2.08,5.34,2.54,8.14,1.91,5.41
CN1C(=O)C(CC(=O)O)NC1=S (stereo not given),,> 100,,> 100,,> 100,,> 100,,> 100,,> 100,,> 100,,> 100,,> 100,,> 100
C=C1C(=O)O[C@H]2[C@H]1CCC(/C=N/c1ncc(Br)cc1N)=C\CC[C@@]1(C)O[C@@H]21,2.37,6.07,2.36,9.33,2.11,7.44,1.38,3.46,10.8,24,2.11,> 100,3.18,17.2,1.32,7.68,5.81,22.3,1.13,5.01
OC(CNCC1CCCO1)Cn1c2ccc(Cl)cc2c2cc(Cl)ccc21 (stereo not given),1.67,3.15,2.09,4.65,2.05,4.03,1.75,3.5,1.72,3.39,2.15,4.76,1.92,3.61,2.05,5.5,1.95,3.75,2.69,6.2
